Consider 3 compounds from patent publication US4585861A, “1,2,4-triazine derivatives” (Eli Lilly and Company, priority 1985, dated 1986).

Assay [1] in a line: Metrazole Induced Convulsion Inhibition Assay. It counts as in vivo, Cox standard strain albino male mice. The conditions noted are these: Mus musculus; oral gavage, 1 h before metrazole 110 mg./kg. i.p.; active = total score of 6 or less (3 mice, range 0-12); read-out: Minimum active oral dose, Metrazole. As for the experimental part: (§1) In this assay, a compound to be tested was suspended in acacia (5%) and administered by gavage to each of three Cox standard strain albino male mice (18-24 grams) at the dose level being investigated. One hour after the oral administration, a water solution of metrazole (pentylenetetrazole) was administered by the intraperitoneal route to each mouse at a dose of 110 mg./kg. […] A score of 0 was assigned to a mouse not showing any signs of convulsant activity; a score of 1 was given to mice developing clonic convulsions; a score of 2 was given to mice showing flexor tonic convulsions; a score of 3 was given to mice showing extensor tonic convulsions; and a score of 4 was given to mice that died within the one hour. The scores of the three mice were totalled for each compound and dose level. The scores can range from 0 to 12; a score of 6 or less was interpreted as indicative of an active compound at that dose level. Values reported in Table 2 below are the minimum oral dose levels (mg./kg.) where activity as defined above was observed.

Assay [2] in a line: Mouse Writhing Inhibition Assay. It counts as in vivo, Cox standard strain albino male mice. As to conditions: oral gavage 60 min before acetic acid 55 mg./kg. i.p., active = less than ten writhes, read-out: Minimum active oral dose, Mouse Writhing. As for the experimental part:
Writhing, which is characterized by contraction of the abdominal musculature, extension of the hindlegs, and rotation of the trunk, was induced in Cox standard strain albino male mice. The mice, weighing 18-24 grams, were fasted overnight and given the test compound by gavage in an acacia suspension (5%) 60 minutes before writhing was induced by the intraperitoneal administration of 55 mg./kg. of acetic acid (0.55 percent). Each treatment group consisted of 3 mice. The total number of writhes for the treatment group was determined during a 5-minute observation starting 5 minutes after acetic acid administration.
A general note: Writhing tests count abdominal constrictions after an irritant is injected.

Assay [3] has as its target benzodiazepine receptor. Nature of the assay: In vitro activation of benzodiazepine (BZ) binding (flunirazepam, native membrane protein). As to conditions: average of one or more tests, read-out: SC50 BZ (nanomolar concentration producing a 50% increase in binding). As for the experimental part:
(§2) The novel compounds of this invention were examined for their in vitro ability to activate GABA and benzodiazepine (BZ) binding. To measure the effect of a compound on GABA binding, Triton X-100 (octylphenoxy polyethoxyethanol, Rohm and Haas Co.) treated membrane protein was incubated in the presence of the compound and [^3 H]GABA as detailed by Horng and Wong, J. Neurochemistry, 32 (5), 1379 (1979). To examine BZ binding, H-flunirazepam and the compounds were incubated with native membrane protein as reported by Wong, et al, Brain Res. Bull., 5 (Suppl. 2), 853 (1980). The results in Table 1 are the nanomolar concentrations of compounds (by Example No.) which produced a 50 percent increase (SC50) in GABA or BZ binding. Each result is the average of one or more tests.

For assay [4], the target named is GABA receptor. Nature of the assay: In vitro activation of GABA binding ([3H]GABA, Triton X-100 treated membrane protein). The conditions noted are these: average of one or more tests, read-out: SC50 GABA (nanomolar concentration producing a 50% increase in binding). Here is the method:
as §2

A short description of assay [5]: Appetite Suppression Assay. It counts as in vivo, Cox standard strain albino male mice. As to conditions: Mus musculus; oral gavage 30 min before feeding; active = weight gain of less than 10% of weight lost on fasting; read-out: Minimum active oral dose, Appetite Suppression. As for the experimental part:
In this test, groups of three Cox standard strain albino male mice were weighed (18-24 grams) and then fasted overnight (16-18 hours). The mice were reweighed and then given the test compound in a suspension of acacia (5%) by gavage. Thirty minutes after oral administration, the mice were allowed to eat freely for one hour. After the eating period, the mice were weighed once more. The percent of weight gained (from the time the mice were given the test compound to after the feeding period) compared to weight lost during the fast period was calculated. The non-drug treated control animals gained back 35-55% of the weight lost on fasting. Any compound at the dose level tested which produced a weight gain of less than 10% was considered to be active. The results in Table 2 report the lowest dose level in which there was activity for each compound tested. Dextroamphetamine sulfate is active in this system at about 2.5 mg./kg.

The nature of assay [6]: Electroshock Induced Convulsion Inhibition Assay. It counts as in vivo, Cox standard strain albino male mice. The conditions noted are these: Mus musculus; oral; 0.1 second, 50 milliampere corneal electroshock; active = total score of 6 or less; read-out: Minimum active oral dose, Electro-Shock. As for the experimental part:
as §1
The drug administration and test conditions used in this assay were similar to those used in the metrazole induced convulsion inhibition assay above except that a 0.1 second, 50 milliampere electroshock through corneal electrodes induced the convulsion instead of metrazole. The animals were examined and evaluated immediately after the electroshock and were scored as before. The results in Table 2 are expressed as the lowest dose of each compound tested which was active as previously defined. For comparison, 18 milliamperes was usually sufficient to produce extensor tonic convulsions in about half of the control animals; at 50 milliamperes, almost all control animals died. Diazepam was active at about 1 mg./kg.

Consider `Cc1ccc(-c2nnc(N3CCC(=O)CC3)nc2-c2ccc(C)cc2)cc1` [Example 39, 1-[5,6-bis(4-methylphenyl)-1,2,4-triazin-3-yl]-4-piperidinone], for which the minimal effective dose is 50 mg/kg in assay [1], 50 mg/kg in assay [2], 12.5 mg/kg in assay [5] and 50 mg/kg in assay [6]. For the same compound, the EC50 was determined as 430 nM in assay [3] and 200 nM in assay [4].
For `Cc1ccc(-c2ncc(N3CCC(O)CC3)nc2-c2ccc(C)cc2)cc1` [Example 42, 1-[5,6-bis(4-methylphenyl)pyrazin-2-yl]-4-piperidinol], the minimal effective dose in assay [1] was 12.5 mg/kg; in assay [2], 12.5 mg/kg; in assay [5], 12.5 mg/kg; in assay [6], 50 mg/kg. In addition, the EC50 in assay [3] was 400 nM; in assay [4], 1200 nM.
Take `CC(=O)OC1CCN(c2cnc(-c3ccc(C)cc3)c(-c3ccc(C)cc3)n2)CC1` [Example 43, 1-[5,6-bis(4-methylphenyl)pyrazin-2-yl]-4-piperidinol, acetate (ester)]: the minimal effective dose was found to be 25 mg/kg in assay [1], 100 mg/kg in assay [2], 25 mg/kg in assay [5] and 100 mg/kg in assay [6]. The EC50 in assay [3] amounted to 10 nM; in assay [4] it was 7 nM.
